Reference: patent US20030087906A1, “NITROGEN SUBSTITUTED BIARYL PURINE DERIVATIVES AS POTENT ANTIPROLIFERATIVE AGENTS” (priority 2001, published 2003)

What was measured:
[1] = test system: RXF 393; experiment: NCI 60-cell line growth inhibition assay; assay type: cell-based; conditions: Homo sapiens; RXF 393 (Renal)
[2] = test system: A498; experiment: NCI 60-cell line growth inhibition assay; assay type: cell-based; conditions: Homo sapiens; A498 (Renal)
[3] = test system: HS 578T; experiment: NCI 60-cell line growth inhibition assay; assay type: cell-based; conditions: Homo sapiens; HS 578T (Breast)
[4] = test system: NCI-H23; experiment: NCI 60-cell line growth inhibition assay; assay type: cell-based; conditions: Homo sapiens; NCI-H23 (Non-Small Cell Lung)
[5] = test system: SF-295; experiment: NCI 60-cell line growth inhibition assay; assay type: cell-based; conditions: Homo sapiens; SF-295 (CNS)
[6] = test system: DU-145; experiment: NCI 60-cell line growth inhibition assay; assay type: cell-based; conditions: Homo sapiens; DU-145 (Prostate)
[7] = test system: NCI-H322M; experiment: NCI 60-cell line growth inhibition assay; assay type: cell-based; conditions: Homo sapiens; NCI-H322M (Non-Small Cell Lung)
[8] = test system: PC-3; experiment: NCI 60-cell line growth inhibition assay; assay type: cell-based; conditions: Homo sapiens; PC-3 (Prostate)
[9] = test system: SK-MEL-2; experiment: NCI 60-cell line growth inhibition assay; assay type: cell-based; conditions: Homo sapiens; SK-MEL-2 (Melanoma)
[10] = test system: COLO 205; experiment: NCI 60-cell line growth inhibition assay; assay type: cell-based; conditions: Homo sapiens; COLO 205 (Colon)
[11] = test system: SW-620; experiment: NCI 60-cell line growth inhibition assay; assay type: cell-based; conditions: Homo sapiens; SW-620 (Colon)
[12] = test system: T-47D; experiment: NCI 60-cell line growth inhibition assay; assay type: cell-based; conditions: Homo sapiens, T47D; T-47D (Breast)
[13] = test system: OVCAR-4; experiment: NCI 60-cell line growth inhibition assay; assay type: cell-based; conditions: Homo sapiens; OVCAR-4 (Ovarian)
[14] = test system: HL-60(TB); experiment: NCI 60-cell line growth inhibition assay; assay type: cell-based; conditions: Homo sapiens; HL-60(TB) (Leukemia)
[15] = test system: OVCAR-3; experiment: NCI 60-cell line growth inhibition assay; assay type: cell-based; conditions: Homo sapiens; OVCAR-3 (Ovarian)
[16] = test system: MOLT-4; experiment: NCI 60-cell line growth inhibition assay; assay type: cell-based; conditions: Homo sapiens; MOLT-4 (Leukemia)
[17] = test system: SNB-19; experiment: NCI 60-cell line growth inhibition assay; assay type: cell-based; conditions: Homo sapiens; SNB-19 (CNS)
[18] = test system: HCC-2998; experiment: NCI 60-cell line growth inhibition assay; assay type: cell-based; conditions: Homo sapiens; HCC-2998 (Colon)
[19] = test system: UO-31; experiment: NCI 60-cell line growth inhibition assay; assay type: cell-based; conditions: Homo sapiens; UO-31 (Renal)
[20] = test system: MCF7; experiment: NCI 60-cell line growth inhibition assay; assay type: cell-based; conditions: Homo sapiens; MCF7 (Breast)
[21] = test system: LOX IMVI; experiment: NCI 60-cell line growth inhibition assay; assay type: cell-based; conditions: Homo sapiens; LOX IMVI (Melanoma)
[22] = test system: SF-539; experiment: NCI 60-cell line growth inhibition assay; assay type: cell-based; conditions: Homo sapiens; SF-539 (CNS)
[23] = test system: UACC-62; experiment: NCI 60-cell line growth inhibition assay; assay type: cell-based; conditions: Homo sapiens; UACC-62 (Melanoma)
[24] = test system: MDA-MB-231/ATCC; experiment: NCI 60-cell line growth inhibition assay; assay type: cell-based; conditions: Homo sapiens; MDA-MB-231/ATCC (Breast)
[25] = test system: SNB-75; experiment: NCI 60-cell line growth inhibition assay; assay type: cell-based; conditions: Homo sapiens; SNB-75 (CNS)
[26] = test system: RPMI-8226; experiment: NCI 60-cell line growth inhibition assay; assay type: cell-based; conditions: Homo sapiens; RPMI-8226 (Leukemia)
[27] = test system: HOP-62; experiment: NCI 60-cell line growth inhibition assay; assay type: cell-based; conditions: Homo sapiens; HOP-62 (Non-Small Cell Lung)
[28] = test system: NCI-H522; experiment: NCI 60-cell line growth inhibition assay; assay type: cell-based; conditions: Homo sapiens; NCI-H522 (Non-Small Cell Lung)
[29] = test system: NCI-H460; experiment: NCI 60-cell line growth inhibition assay; assay type: cell-based; conditions: Homo sapiens; NCI-H460 (Non-Small Cell Lung)
[30] = test system: EKVX; experiment: NCI 60-cell line growth inhibition assay; assay type: cell-based; conditions: Homo sapiens; EKVX (Non-Small Cell Lung)
[31] = test system: NCI-H226; experiment: NCI 60-cell line growth inhibition assay; assay type: cell-based; conditions: Homo sapiens; NCI-H226 (Non-Small Cell Lung)
[32] = test system: Tumor Cells in Hollow Fibers; experiment: NCI Hollow Fiber Assay (in vivo evaluation)
[33] = test system: NCI/ADR-RES; experiment: NCI 60-cell line growth inhibition assay; assay type: cell-based; conditions: Homo sapiens; NCI/ADR-RES (Breast)
[34] = test system: 786-0; experiment: NCI 60-cell line growth inhibition assay; assay type: cell-based; conditions: Homo sapiens; 786-0 (Renal)
[35] = test system: HOP-92; experiment: NCI 60-cell line growth inhibition assay; assay type: cell-based; conditions: Homo sapiens; HOP-92 (Non-Small Cell Lung)
[36] = test system: CCRF-CEM; experiment: NCI 60-cell line growth inhibition assay; assay type: cell-based; conditions: Homo sapiens; CCRF-CEM (Leukemia)
[37] = test system: TK-10; experiment: NCI 60-cell line growth inhibition assay; assay type: cell-based; conditions: Homo sapiens; TK-10 (Renal)
[38] = test system: MDA-N; experiment: NCI 60-cell line growth inhibition assay; assay type: cell-based; conditions: Homo sapiens; MDA-N (Breast)
[39] = test system: SK-MEL-28; experiment: NCI 60-cell line growth inhibition assay; assay type: cell-based; conditions: Homo sapiens; SK-MEL-28 (Melanoma)
[40] = test system: HT29; experiment: NCI 60-cell line growth inhibition assay; assay type: cell-based; conditions: Homo sapiens, HT-29; HT29 (Colon)

## CC(=O)N[C@H]1CC[C@H](Nc2nc(NCc3ccc(-c4ccccn4)cc3)c3ncn(C(C)C)c3n2)CC1 [Compound 79]
[1]
  GI50: < 10 nM
[2]
  GI50: < 10 nM
[3]
  GI50: < 10 nM
[4]
  GI50: < 10 nM
[5]
  GI50: < 10 nM
[6]
  GI50: < 10 nM
[7]
  GI50: < 10 nM
[8]
  GI50: < 10 nM
[9]
  GI50: < 10 nM
[10]
  GI50: < 10 nM
[11]
  GI50: < 10 nM
[12]
  GI50: < 10 nM
[13]
  GI50: < 10 nM
[14]
  GI50: < 10 nM
[15]
  GI50: < 10 nM
[16]
  GI50: < 10 nM
[17]
  GI50: < 10 nM
[18]
  GI50: < 10 nM
[19]
  GI50: < 10 nM
[20]
  GI50: < 10 nM
[21]
  GI50: < 10 nM
[22]
  GI50: < 10 nM
[23]
  GI50: < 10 nM
[24]
  GI50: < 10 nM
[25]
  GI50: < 10 nM
[26]
  GI50: < 10 nM
[27]
  GI50: < 10 nM
[28]
  GI50: < 10 nM
[29]
  GI50: < 10 nM
[30]
  GI50: < 10 nM
[31]
  GI50: < 10 nM
[32]; IP fibers
  IP Score: 26
[32]; SC fibers
  SC score: 6
[33]
  GI50: 860 nM
[34]
  GI50: < 10 nM
[35]
  GI50: < 10 nM
[36]
  GI50: < 10 nM
[37]
  GI50: < 10 nM
[38]
  GI50: < 10 nM
[39]
  GI50: < 10 nM
[40]
  GI50: < 10 nM
